Reference: patent US11197904B2, “Pharmaceutical compositions for preventions and managements of dementia, infectious diseases, cancers, periodontitis, dental caries, diabetes, obesity, osteoporosis and chronic pain and methods thereof” (Chung Shan Medical University, priority 2018, dated 2021)
Converted amounts (≈) assume the structure as drawn. Read-outs that look alike come from different tables or passages of the source.

How the values were obtained:
[1] = tested on: Pseudomonas aeruginosa (P.a.); assay: microbe, parasite or virus in culture; details: read-out: IC50, 50% inhibition on bacterial proliferation, P. a.
[2] = tested on: Streptococcus mutans (S.m., UA159); assay: microbe, parasite or virus in culture; details: read-out: IC50, 50% inhibition on bacterial proliferation, UA159
[3] = tested on: Porphyromonas gingivalis (P.g.); assay: microbe, parasite or virus in culture; details: read-out: IC50, 50% inhibition on bacterial proliferation, P. g.
[4] = tested on: Staphylococcus aureus (S.a); assay: microbe, parasite or virus in culture; details: read-out: IC50, 50% inhibition on bacterial proliferation, S. a.
[5] = tested on: Streptococcus mutans (S.m., UA159)
[6] = tested on: Staphylococcus aureus (S.a); details: for IC50: read-out: IC50, S. a., metals alone
[7] = tested on: Porphyromonas gingivalis (P.g.)
[8] = tested on: Pseudomonas aeruginosa (P.a.); details: for IC50: read-out: IC50, P. a., metals alone
[9] = tested on: Lactobacillus reuteri (L.r.); assay: Proliferation of the probiotic Lactobacillus reuteri (OD600); type: cell-based
[10] = read-out: IC50, UA159, metals alone
[11] = read-out: IC50, P. g., metals alone
[12] = 3 to 10 times higher IC50, Table 2

| Compound | IC50 [1] | IC50 [2] | IC50 [3] | IC50 [4] | also measured |
| --- | --- | --- | --- | --- | --- |
| [H]/N=C(/N)N[C@H]1[C@H](O)[C@@H](O)[C@H](O[C@@H]2O[C@@H](C)[C@](O)(C=O)[C@H]2O[C@@H]2O[C@@H](CO)[C@H](O)[C@@H](O)[C@@H]2NC)[C@@H](N/C(N)=N\[H])[C@@H]1O [Streptomycin] | 5 µg/mL (≈ 8.6 µM) | 21 µg/mL (≈ 36.1 µM) | 9 µg/mL (≈ 15.5 µM) | 0.2 µg/mL (≈ 0.344 µM) |  |
| polyarginine |  |  |  |  | IC50, 50% inhibition on bacterial proliferation, UA159 ([5]; single agent): >0.1 mg/mL; IC50, 50% inhibition on bacterial proliferation, S. a. ([6]; single agent): >0.1 mg/mL; IC50, 50% inhibition on bacterial proliferation, P. g. ([7]; single agent): 0.025 mg/mL; IC50, 50% inhibition on bacterial proliferation, P. a. ([8]; single agent): >0.1 mg/mL |
| [Cl][Cu][Cl] [CuCl2] |  |  |  |  | IC50 [5, 10]: 448 µM; IC50 [6]: > 2 mM; IC50 [7, 11]: 673 µM; IC50 [8]: 1.69 mM |
| COc1ccc(CCN(C)CCCC(C#N)(c2ccc(OC)c(OC)c2)C(C)C)cc1OC (stereo not drawn) [Verapamil] | > 300 µg/mL | > 300 µg/mL | 137 µg/mL (≈ 301 µM) | > 300 µg/mL |  |
| O=C(O[C@@H]1Cc2c(O)cc(O)cc2O[C@@H]1c1cc(O)c(O)c(O)c1)c1cc(O)c(O)c(O)c1 [EGCG] |  |  |  |  | IC50, 50% inhibition on bacterial proliferation, UA159 ([5]; single agent): 0.137 mg/mL (≈ 299 µM); IC50, 50% inhibition on bacterial proliferation, S. a. ([6]; single agent): 0.142 mg/mL (≈ 310 µM); IC50, 50% inhibition on bacterial proliferation, P. g. ([7]; single agent): 0.083 mg/mL (≈ 181 µM); IC50, 50% inhibition on bacterial proliferation, P. a. ([8]; single agent): 0.173 mg/mL (≈ 377 µM) |
| O=c1c(O)c(-c2ccc(O)c(O)c2)oc2cc(O)cc(O)c12 [Quercetin] | > 100 µg/mL | 46 µg/mL (≈ 152 µM) | > 100 µg/mL | > 100 µg/mL |  |
| CO[C@H]1/C=C/O[C@@]2(C)Oc3c(C)c(O)c4c(O)c(c(/C=N/N5CCN(C)CC5)c(O)c4c3C2=O)NC(=O)/C(C)=C\C=C\[C@H](C)[C@H](O)[C@@H](C)[C@@H](O)[C@@H](C)[C@H](OC(C)=O)[C@@H]1C [Rifampin] | 26 µg/mL (≈ 31.6 µM) | 0.013 µg/mL (≈ 0.0158 µM) | 0.45 µg/mL (≈ 0.547 µM) | 0.013 µg/mL (≈ 0.0158 µM) |  |
| CSc1ccc2c(c1)N(CCC1CCCCN1C)c1ccccc1S2 (stereo not drawn) [Thioridazine] |  |  |  |  | Inhibition on proliferation of Lactobacillus reuteri [9, 12]: TRZ, Thioridazine* |
| NC[C@H]1O[C@H](O[C@H]2[C@H](O)[C@@H](O[C@H]3O[C@H](CO)[C@@H](O)[C@H](N)[C@H]3O)[C@H](N)C[C@@H]2N)[C@H](N)C[C@@H]1O [Tobramycin] | 9 µg/mL (≈ 19.3 µM) | < 3 µg/mL | 4 µg/mL (≈ 8.56 µM) | < 3 µg/mL |  |
| C[C@@H]1CC[C@@]2(OC1)O[C@H]1[C@@H](O)[C@H]3[C@@H]4CC[C@H]5C[C@@H](O[C@@H]6O[C@H](CO)[C@H](O[C@@H]7O[C@H](CO)[C@@H](O)[C@H](O[C@@H]8OC[C@@H](O)[C@H](O)[C@H]8O)[C@H]7O[C@@H]7O[C@H](CO)[C@H](O)[C@H](O[C@@H]8O[C@H](CO)[C@@H](O)[C@H](O)[C@H]8O)[C@H]7O)[C@H](O)[C@H]6O)[C@H](O)C[C@]5(C)[C@H]4CC[C@]3(C)[C@H]1[C@@H]2C [Digitonin] | > 300 µg/mL | > 300 µg/mL | 123 µg/mL (≈ 100 µM) | > 300 µg/mL |  |
| NNC(=O)c1ccncc1 [Isoniazid] | > 300 µg/mL | > 300 µg/mL | > 300 µg/mL | > 300 µg/mL |  |
| C=C[C@H]1C[N@@]2CC[C@H]1C[C@H]2[C@H](O)c1ccnc2ccc(OC)cc12 [Quinine] | > 100 µg/mL | > 100 µg/mL | 43 µg/mL (≈ 133 µM) | > 100 µg/mL |  |
| CN(C)CCCN1c2ccccc2Sc2ccc(Cl)cc21 [Chlorpromazine] | 149 µg/mL (≈ 467 µM) | 7 µg/mL (≈ 22 µM) | 5 µg/mL (≈ 15.7 µM) | 12 µg/mL (≈ 37.6 µM) | Inhibition on proliferation of Lactobacillus reuteri [9, 12]: CPZ, Chlorpromazine* |
| CC(Cc1ccc(O)c(O)c1)C(C)Cc1ccc(O)c(O)c1 (stereo not drawn) [Nordihydro-guaiaretic acid] | > 300 µg/mL | 50 µg/mL (≈ 165 µM) | < 30 µg/mL | 66 µg/mL (≈ 218 µM) |  |
| CN(C)C(=N)N=C(N)N [Metformin] | > 1000 µg/mL | > 1000 µg/mL | 639 µg/mL (≈ 4950 µM) | > 1000 µg/mL | Inhibition on proliferation of Lactobacillus reuteri [9, 12]: MF, Metformin* |
| C[C@@H]1[C@H](O)[C@@H](C)/C=C/C=C/CC/C=C/C=C/C=C/C=C/C(O[C@H]2O[C@H](C)[C@@H](O)[C@H](N)[C@@H]2O)CC2O[C@](O)(CC(O)C(O)CCC(O)CC(O)CC(O)CC(=O)O[C@H]1C)CC(O)C2C(=O)O (stereo partly drawn) [Nystatin] |  |  |  |  | IC50, 50% inhibition on bacterial proliferation, UA159 ([5]; single agent): >0.3 mg/mL; IC50, 50% inhibition on bacterial proliferation, S. a. ([6]; single agent): >0.3 mg/mL; IC50, 50% inhibition on bacterial proliferation, P. g. ([7]; single agent): 0.228 mg/mL (≈ 246 µM); IC50, 50% inhibition on bacterial proliferation, P. a. ([8]; single agent): >0.3 mg/mL |

| Compound | IC50 [1] | IC50 [2] | IC50 [3] | IC50 [4] | also measured |
| --- | --- | --- | --- | --- | --- |
| N=C(N)NCCC[C@H](N)C(=O)N[C@@H](Cc1ccccc1)C(=O)O [ArgPhe] |  |  |  |  | IC50, 50% inhibition on bacterial proliferation, UA159 ([5]; S.m., UA159): >0.1 mg/mL; IC50, 50% inhibition on bacterial proliferation, S. a. ([6]; S.a, 16 h): >0.1 mg/mL; IC50, 50% inhibition on bacterial proliferation, P. g. [7]: >0.1 mg/mL; IC50, 50% inhibition on bacterial proliferation, P. a. ([8]; P.a., 16 h): >0.1 mg/mL |
| COc1ccc2cc3[n+](cc2c1OC)CCc1cc2c(cc1-3)OCO2 [Berberine] | > 100 µg/mL | 25 µg/mL | > 100 µg/mL | > 100 µg/mL |  |
| [Na+].[Na+].[Na+].[O]=[V]([O-])([O-])[O-] [Na3VO4] |  |  |  |  | IC50 [5, 10]: 866 µM; IC50 [6]: > 2 mM; IC50 [7, 11]: 217 µM; IC50 [8]: > 2 mM |
| O[C@H](CS)[C@H](O)CS (racemic) [Dithiothreitol] | > 300 µg/mL | > 300 µg/mL | > 300 µg/mL | > 300 µg/mL |  |
| CC(O)(P(=O)(O)O)P(=O)(O)O [Etidronate] | > 1000 µg/mL | 597 µg/mL (≈ 2900 µM) | 46 µg/mL (≈ 223 µM) | 350 µg/mL (≈ 1700 µM) |  |
| Cc1nc(C)c(C)nc1C [Tetramethyl-pyrazine] | > 300 µg/mL | > 300 µg/mL | 37 µg/mL (≈ 272 µM) | > 300 µg/mL |  |
| COc1cc(/C=C/C(=O)CC(=O)/C=C/c2ccc(O)c(OC)c2)ccc1O [Curcumin] | 302 µg/mL (≈ 820 µM) | 42 µg/mL (≈ 114 µM) | 126 µg/mL (≈ 342 µM) | < 1000 µg/mL | Inhibition on proliferation of Lactobacillus reuteri ([9]; 3 to 10 times higher than the listed IC50, Table 1): C*, Curcumin |
| COc1ccc([C@@H]2Sc3ccccc3N(CCN(C)C)C(=O)[C@@H]2OC(C)=O)cc1 [Diltiagem] |  |  |  |  | IC50, 50% inhibition on bacterial proliferation, UA159 ([5]; single agent): >0.3 mg/mL; IC50, 50% inhibition on bacterial proliferation, S. a. ([6]; single agent): >0.3 mg/mL; IC50, 50% inhibition on bacterial proliferation, P. g. ([7]; single agent): 0.104 mg/mL (≈ 251 µM); IC50, 50% inhibition on bacterial proliferation, P. a. ([8]; single agent): >0.3 mg/mL |
| Cardiotoxin |  |  |  |  | IC50, 50% inhibition on bacterial proliferation, UA159 ([5]; single agent): >0.01 mg/mL; IC50, 50% inhibition on bacterial proliferation, S. a. ([6]; single agent): >0.01 mg/mL; IC50, 50% inhibition on bacterial proliferation, P. g. ([7]; single agent): 0.011 mg/mL; IC50, 50% inhibition on bacterial proliferation, P. a. ([8]; single agent): >0.01 mg/mL |
| Cc1cc(N)c2ccccc2[n+]1CCCCCCCCCC[n+]1c(C)cc(N)c2ccccc21 [Dequalinium] | > 10 µg/mL | 1 µg/mL | 3 µg/mL | 2 µg/mL |  |
| protamine |  |  |  |  | IC50, 50% inhibition on bacterial proliferation, UA159 ([5]; single agent): >0.1 mg/mL; IC50, 50% inhibition on bacterial proliferation, S. a. ([6]; single agent): >0.1 mg/mL; IC50, 50% inhibition on bacterial proliferation, P. g. ([7]; single agent): 0.031 mg/mL; IC50, 50% inhibition on bacterial proliferation, P. a. ([8]; single agent): >0.1 mg/mL |
| Lysozyme |  |  |  |  | IC50, 50% inhibition on bacterial proliferation, UA159 ([5]; single agent): >0.1 mg/mL; IC50, 50% inhibition on bacterial proliferation, S. a. ([6]; single agent): >0.1 mg/mL; IC50, 50% inhibition on bacterial proliferation, P. g. ([7]; single agent): 0.021 mg/mL; IC50, 50% inhibition on bacterial proliferation, P. a. ([8]; single agent): >0.1 mg/mL |
| CCCCCCc1ccc(O)cc1O [4-Hexyl-Resorcinol] | > 100 µg/mL | 15 µg/mL (≈ 77.2 µM) | 20 µg/mL (≈ 103 µM) | 32 µg/mL (≈ 165 µM) |  |
| CC12CC3CC(C)(C1)CC(N)(C3)C2 [Memantine] | 321 µg/mL (≈ 1790 µM) | 386 µg/mL (≈ 2150 µM) | 59 µg/mL (≈ 329 µM) | 435 µg/mL (≈ 2430 µM) |  |
| N.N.[Cl][Pt][Cl] [Pt] |  |  |  |  | IC50 ([5]; read-out: IC50 of single drug, Table 14, UA159, drug alone): > 100 µM; IC50 ([7]; read-out: IC50 of single drug, Table 14, P. g., drug alone): 69 µM |
| Phospholipase A2 |  |  |  |  | IC50, 50% inhibition on bacterial proliferation, UA159 ([5]; single agent): >0.01 mg/mL; IC50, 50% inhibition on bacterial proliferation, S. a. ([6]; single agent): >0.01 mg/mL; IC50, 50% inhibition on bacterial proliferation, P. g. ([7]; single agent): >0.01 mg/mL; IC50, 50% inhibition on bacterial proliferation, P. a. ([8]; single agent): >0.01 mg/mL |
